Experiments:
Format in all cases: in vivo
[1] = system: paddy grains; assay: Analysis of micronutrient absorption levels in paddy grains by ICP; details: paddy grain powder, acid digest
Protocol: Analysis of Micronutrients in Paddy Samples by ICP (Inductive Coupled Plasma) Equipment.
The method include the steps of:— • 1. 1 gm of grain powder was added to 60 ml of perchloric acid and Nitric acid (9:1) and were digested overnight. • 2. Heat the mixtures at 100 c for 2 hours until vapors change from red to white color. • 3. The resultant solution was filtered through a Whatman paper and makeup to 100 ml with 1% nitric acid. • 4. The solution was tested for micronutrients by ICP.

[2] = system: plants; assay: Total protein content (Lowry method, absorbance at 660 nm); details: 1 g of sample in 25 ml
Protocol: Total protein content in the sample content were estimated by performing Lowry method which include the following steps:— • 1 g of samples in 25 ml were filtered through whatman filter paper 1 • 4.5 ml of a reagent comprising NaOH, sodium potassium tartrate, and CuSO4.5H2O were added and incubated for 10 mins. • After incubation, 0.5 ml of Folin-Ciocalteu's phenol reagent were added and incubated for 30 mins. • Absorbance was measured with UV Vis Spectrophotometer At 660 nm and a standard graph was plotted.

[3] = system: plants; assay: Total polyphenol content (Folin-Ciocalteu, absorbance at 765 nm); details: 1 g test sample, 70% methanol extract
Protocol: Total polyphenol content were estimated by performing the following steps:— • 10-15 ml of 70% MeOH (70 ml methanol: 30 ml water) were added to 1 g of test sample • Filter through whatman filter paper 1 and was made up to 25 ml with 70% methanol. • 5 ml of folin ciocalteu's phenol reagent were added. • Incubation for 5 mins. • 4 ml of 7.5% Na2CO3 were added and incubated for 1 hr. • absorbance was measured at 765 nm.

SMILES: COc1ccc2[nH]cc(CCNC(C)=O)c2c1 [Melatonin, N-Acetyl-5-methoxytryptamine]
- Al [1]: 241.3 ppm
- B [1]: 40.5 ppm
- Ca [1]: 405.7 ppm
- Co [1]: 15.4 ppm
- Fe [1]: 257.9 ppm
- Mg [1]: 697.2 ppm
- Mn [1]: 42.5 ppm
- Zn [1]: 29.1 ppm
- Total Protein content in % [2]: 0.076%
- Total Phenol content in ppm [3]: 18.6 ppm

From US20240156094A1, “MELATONIN COMPOSITION WITH METALS AND A METHOD FOR ENHANCING ENZYMATIC REACTIONS AND METABOLIC PATHWAYS IN PLANTS” (FERTIS INDIA PVT. LTD., priority 2021, published 2024)
